The subject of one data set is lung granulomas. The following applies: cynomolgus monkey, in vivo.
Data set [1] in a line: Gamma counting of Percoll-separated blood fractions. The data set is classed as in vivo, cynomolgus macaques (Macaca fascicularis). The following applies: Percoll gradient separation: RBC pellet, buffy coat, plasma.
The target of another data set is T1, FPR1 (Homo sapiens, UniProt P21462).
T1 sequence (P21462 1-350): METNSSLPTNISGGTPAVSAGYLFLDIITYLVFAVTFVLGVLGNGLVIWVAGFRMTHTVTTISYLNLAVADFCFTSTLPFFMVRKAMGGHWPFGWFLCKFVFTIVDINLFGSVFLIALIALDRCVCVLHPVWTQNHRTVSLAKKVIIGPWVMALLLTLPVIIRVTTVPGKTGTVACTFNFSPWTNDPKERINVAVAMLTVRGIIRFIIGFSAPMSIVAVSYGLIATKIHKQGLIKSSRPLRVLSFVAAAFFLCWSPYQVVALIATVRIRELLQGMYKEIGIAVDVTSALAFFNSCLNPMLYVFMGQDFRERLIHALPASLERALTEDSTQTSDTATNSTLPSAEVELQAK
Description: FPR1 receptor internalization in GFP-FPR1 HEK293T cells. The following applies: fluorescence imaging, vs untreated controls. It is filed as cell-based.

The subject of another data set is Gr-1 stained neutrophils. Description: Immunofluorescence microscopy of CFA-injected mouse paws. It is filed as in vivo. As to conditions: inflamed mouse paw, 5 h postprobe injection, frozen sections.

This is an account of results in publication PMC8744071 (ACS infectious diseases, 2021).

Entries after “also recorded” stand apart in the source; their conditions may differ. Where a SMILES comes first, the peptide text is derived from it. Primed or numbered codes have the meaning given here. Where no end group is shown, it is not given here. Side-chain parts run from the residue outwards. [ ]: non-standard residue; d: D form. The star is where a group is joined. CB‑TE1A1P = O=C(CN1CCCN2CCN(CCCN(CP(=O)(O)O)CC2)CC1)*; cinnamoyl = O=C(/C=C/c1ccccc1)*; PEG12′ = not defined here

On to “2-deoxy-2-(^18F)fluoro-D-glucose [^18F-FDG]”, for which, in the data set with lung granulomas, the “18F-FDG liver uptake by PET/CT” value was “minimal” and the “18F-FDG uptake in lung granulomas by PET/CT” value is given as “readily identifiable above lung background”.

With `CC(C)C[C@@H](NC(=O)[C@H](Cc1ccccc1)NC(=O)[C@@H](CC(C)C)NC(=O)[C@H](Cc1ccccc1)NC(=O)C=Cc1ccccc1)C(=O)N[C@@H](Cc1ccccc1)C(=O)O` [FLFLF, N-cinnamoyl-F-(D)L-F-(D)L-F] (HELM PEPTIDE1{[O=C(C=Cc1ccccc1)[*:2]].F.[dL].F.[dL].F}$$$$V2.0), the “Distribution of FLFLF in peripheral blood fractions” value in data set [1] is “remains in the plasma fraction rather than being bound to blood cells”.

For the compound “FLFLF-PEG12: pegylated FLFLF tested for FPR1 internalization (cinnamoyl-F[dL]F[dL]FK([PEG12′-CB‑TE1A1P]); also: CB-TE1A1P chelating 64Cu)”, in the data set with FPR1, the “FPR1 internalization / signaling” value is reported as “did not lead to internalized receptor”. With “cinnamoyl-F(D)LF(D)LFK-PEG12-Cy3 [Cy3-FLFLF]”, the “Cy3-FLFLF labeling of cells in tissue / colocalization with Gr-1” value in the data set with Gr-1 stained neutrophils was “labeled neutrophils could be detected in tissues by immunofluorescence, although other non-Gr-1-stained cells were detectable; also recorded: variable amounts of colocalization of Cy3-FLFLF and Gr-1”.
